Results: patent US10201585B2, “Methods for treatment of atherosclerosis” (Stealth Peptides International, Inc., priority 2012, dated 2019)
Entries after “also recorded” stand apart in the source; their conditions may differ.

Test system: Apoprotein E deficient mice
Experiment: Total lesion area in aortic root 300 μm across aortic valve (cryosections, lipid staining)
Assay type: in vivo
Parameters: Total lesion area in aortic root 300 μm across aortic valve / Total lesion area in aortic root 300 μm across aortic valve, AVE: unit not given here
From the text: Apoprotein E deficient mice (Jackson Laboratories, 600 Main Street, Bar Harbor, Me.) were used in this study. The mice were male, 7-8 weeks of age, and between 18-20 g in weight. An initial total cholesterol measurement was made on 30 mice, and the mice were grouped into two groups of 15 to match the total cholesterol measurements. Both groups were fed a “western diet” (40 kcal % butterfat, 0.15% [wt/wt] cholesterol, Harlan Teklad diet TD-88137). Starting at t=0, the control group of 15 mice received vehicle only (phosphate buffered saline at pH 7.4), while the test group of 15 mice received aromatic-cationic peptide reconstituted in phosphate buffered saline. Body weights of the mice were recorded weekly, and mortality checks were performed daily.
The aromatic-cationic peptide D-Arg-2′6′-Dmt-Lys-Phe-NH2 (sterile lyophilized powder, reconstituted in phosphate buffered saline) was tested. […]
For the aortic sinus, the heart and approximately 5 mm of the ascending aorta was cut from the remainder of the aorta. […] The sinus was imaged at 5 step levels in the region of interest, i.e., the aortic root, for a total distance of 300 μm and the lipid-staining areas and measured (total cross sectional area) using a Nikon computerized image analysis system. The data were then computed by group and statistically analyzed.

D-Arg-2′6′-Dmt-Lys-Phe-NH2 was tested. Which “Total lesion area in aortic root 300 μm across aortic valve, AVE” value (group mean of 15 test mice, 12 weeks, vehicle group 351.77) did it give?
The value was 282.72.

And the “Total (mean) lesion area in the aortic root, in words” value (treated versus vehicle, 12 weeks (Table 9, FIG. 3))?
The value was “reduces; also recorded: lower”.
